# Laboratory results published in patent publication US20260027239A1, “cRGD -CONJUGATED IMAGING AGENT” (Curadel Surgical Innovations, Inc., priority 2022, published 2026).
# Key:
# [1] = Stability in warm buffered fetal bovine serum (normalized absorbance and absorbance spectra over time); type: in vitro ADME; settings: 37° C. buffered FBS
# Protocol: The normalized absorbance of ZW800-1 and ZW700-1c in 37° C. buffered FBS, pH 7.4 over time from 0 to 60 hours are shown in FIGS. 2-4.
# [2] = Stability of cRGD in serum; type: in vitro ADME
"stability, changes in absorption spectra during metabolism in warm serum ([1]; pH 7.4, 0 to 48 hours, compared to ZW800-1 (FIGS. 5-6))","stability, normalized absorbance over time ([1]; pH 7.4, 0 to 60 hours, compared to ZW800-1 (FIGS. 2-4))",stability in serum [2],Compound
high stability,extreme stability,,CC1(C)C(/C=C/C(=C/C=C2/N(CCC[N+](C)(C)C)c3ccc(S(=O)(=O)[O-])cc3C2(C)C)c2ccc(CCC(=O)[O-])cc2)=[N+](CCC[N+](C)(C)C)c2ccc(S(=O)(=O)[O-])cc21 [ZW700-1c]
,,stable in serum for days,N=C(N)NCC[C@@H]1NC(=O)[C@H](CCCCN)NC(=O)[C@@H](Cc2ccc(O)cc2)NC(=O)[C@H](C(=O)O)NC(=O)CNC1=O [cRGD]
